From patent US8440711B2, “2-aryl-2-fluoropropanoic acids and derivatives and pharmaceutical compositions containing them” (Dompe Pha.r.ma S.p.A., priority 2006, dated 2013)
Where a name gives a salt, the structure may show the parent alone. Read-outs that look alike come from different tables or passages of the source. One block for each compound: values may come before it.

Columns and labels:
[1] = tested on: GRO-α induced chemotaxis of polymorphonucleate leukocytes (PMNs); assay: GRO-α induced chemotaxis of human PMNs; type: cell-based; conditions: Leukocyte; for inhibition at 0.01 µM: 10^−8 M
Description: (§1) The compounds of the invention of formula (I) were evaluated in vitro for their ability to inhibit chemotaxis of polymorphonucleate leukocytes (hereinafter referred to as PMNs) and monocytes induced by the fractions of CXCL8 and GRO-α and C5a and compared to the corresponding non fluorinated parent compounds. For this purpose, in order to isolate the PMNs from heparinized human blood, taken from healthy adult volunteers, mononucleates were removed by means of sedimentation on dextran (according to the procedure disclosed by W. J. Ming et al., J. Immunol., 138, 1469, 1987) and red blood cells by a hypotonic solution. The cell vitality was calculated by exclusion with Trypan blue, whilst the ratio of the circulating polymorphonucleates was estimated on the cytocentrifugate after staining with Diff Quick.
GRO-α induced chemotaxis inhibition was evaluated in an analogous assay.
(§2) In the chemotaxis experiments, the PMNs were incubated with the compounds of the invention of formula (I) for 15′ at 37° C. in an atmosphere containing 5% CO2.
(§3) During the chemotaxis assay (W. Falket et al., J. Immunol. Methods, 33, 239, 1980) PVP-free filters with a porosity of 5 μm and microchambers suitable for replication were used.
(§4) The compounds of the invention in formula (I) were evaluated at a concentration ranging between 10^−6 and 10^−10 M; for this purpose they were added, at the same concentration, both to the lower pores and the upper pores of the microchamber. Evaluation of the ability of the compounds of the invention of formula (I) to inhibit the chemotaxis of human monocytes was carried out according to the method disclosed (Van Damme J. et al., Eur. J. Immunol., 19, 2367, 1989).

[2] = tested on: CXCL8 induced chemotaxis of polymorphonucleate leukocytes (PMNs); assay: CXCL8 induced chemotaxis of human PMNs; type: cell-based; conditions: Leukocyte; for inhibition at 0.001 µM: 10^−9 M
Description: as §1
In the CXCL8 induced chemotaxis assay human recombinant CXCL8 (Pepro Tech) was used as stimulating agents in the chemotaxis experiments: the lyophilized protein was dissolved in a volume of HBSS containing 0.2% bovin serum albumin (BSA) so thus to obtain a stock solution having a concentration of 10^−5 M to be diluted in HBSS to a concentration of 10^−9 M, for the chemotaxis assays.
as §2, §3, §4

[3] = Protein binding in rat plasma (ultrafiltration); type: in vitro ADME; conditions: 37° C.
Description: (§5) Protein Binding was determined as follows: Duplicate rat plasma samples of each compound at 50 μg/mL concentration were incubated at 37° C. for 20 minutes under gentle shaking. Then samples were ultrafiltrated through Centrifree® micropartition devices by centrifugation at 1500 g for 15 minutes. The ultrafiltrate was subjected to HPLC-MS/MS quantitative analysis (Column Luna C18, 150×2 mm ID 5 μm (Phenomenex), mobile phase: eluent A) 0.02M HCOO—NH4+ (pH 4.3 with HCOOH); eluent B) CH3OH).

[4] = Pharmacokinetic profile after intravenous and oral administration; type: in vivo; conditions: male, rat, plasma; for bioavailability: po; for half-life: read-out: t½ (converted)
Description: The pharmacokinetic profile of the compounds of formula (I) was evaluated in male mice or rats after intravenous and oral administration. The pharmacokinetic analysis was performed using plasmatic concentrations of the compounds at different times. The data were evaluated by Kinetica 2000™, Version 3.0 Software [InnaPhase Corporation, World headquarters, 1700 Race Street, Philadelphia, Pa. 19103 USA]. The pharmacokinetic parameters were calculated according the following formulas: Kel=elimination rate constant; t1/2=In2/Kel, AUC=AUC0n+AUCextra, where AUC0n=AUC from t=0 to t last (Trapezoidal Method) and AUCextra=extrapolated AUC=Clast/Kel; Clearance=D/AUC; Vd=Cl/Kel; Oral bioavailability F=(AUCp.o./AUCi.v.)*(Di.v./Dp.o.)*100.

[5] = tested on: C5a induced chemotaxis of polymorphonucleate leukocytes (PMNs); assay: C5a induced chemotaxis of human PMNs; type: cell-based; conditions: Leukocyte, 10^−8 M, Table 2
Description: as §1
In the C5a induced chemotaxis assay the fractions hr-C5a and hrC5a-desArg (Sigma) were used as stimulating agents in chemotaxis experiments, obtaining practically identical results. Lyophilized C5a was dissolved in a volume of HBSS containing 0.2% BSA so as to obtain a stock solution having a concentration of 10^−5 M, to be diluted in HBSS to a concentration of 10^−9 M, for the chemotaxis assays.
as §2
The chemotactic activity of the C5a was evaluated on human circulating polymorphonucleates (PMNs) resuspended in HBSS at a concentration of 1.5×10^6 PMNs per nil.
as §3, §4

[6] = Protein binding, experiments performed in mouse; type: in vitro ADME; conditions: plasma; values marked *: experiments performed in mouse
Description: as §5

[7] = Table 1, read-out: CXCL8 (% inhibition at 10^−9 M)
[8] = values marked *: 10^−7 M, Table 1, read-out: GRO-α (% of inhibition at 10^−7 M)

SMILES: CC(F)(C(=O)O)c1cccc(C(=O)c2ccccc2)c1 (centres unmarked) [Compound 6, 2-(3-benzoylphenyl)-2-fluoropropanoic acid]
inhibition at 0.01 µM ([1]; Table 1): 42 ± 4%

melting point: 85 to 87 °C
SMILES: CC(F)(C(N)=O)c1ccc(OS(=O)(=O)C(F)(F)F)cc1 (centres unmarked) (as salt: methanesulfonate) [Compound 8, 4-(2-amino-1-fluoro-1-methyl-2-oxoethyl)phenyl trifluoromethanesulfonate]

SMILES: CC(F)(C(=O)O)c1cccc(Nc2nc(C(F)(F)F)cs2)c1 (centres unmarked) [Compound 7]
inhibition at 0.001 µM [2, 7]: 21 ± 6%
inhibition at 0.01 µM ([1]; Table 1): 60 ± 10%

fraction unbound at 20 min, 50 μg/mL [3]: 0.2
Vd [4]: 1.33 L/kg
clearance [4]: 0.65 mL/min/kg
bioavailability [4]: 85%
half-life [4]: 25 h
SMILES: CC(O)(C(N)=O)c1ccc(OS(=O)(=O)C(F)(F)F)cc1 (centres unmarked)

SMILES: CC(F)(C(N)=O)c1cccc(C(=O)c2ccccc2)c1 (centres unmarked) [Compound 13, 2-(3-benzoylphenyl)-2-fluoropropanamide]
inhibition at 0.1 µM ([2]; marked *, no footnote in Table 2 (Table 1: * = 10^−7 M), read-out: CSCL8 (% inhibition), value marked *): 52 ± 8%
inhibition at 0.1 µM ([1]; marked *, no footnote in Table 2 (Table 1: * = 10^−7 M), read-out: GRO-α (% inhibition), value marked *): 50 ± 12%
inhibition at 0.01 µM [5]: 47 ± 9%

SMILES: C[C@H](NC(=O)C(C)(F)c1cccc(Nc2nc(C(F)(F)F)cs2)c1)C(=O)O (stereo partly drawn) [Compound 16, (2S)-2-{[2-fluoro-2-(3-{[4-(trifluoromethyl)-1,3-thiazol-2-yl]amino}phenyl)propanoyl]amino}propanoic acid]
inhibition at 0.001 µM [2, 7]: 50 ± 12%

SMILES: C[C@](F)(C(=O)NC[C@H]1CCCN1)c1ccc(OS(=O)(=O)C(F)(F)F)cc1 [Compound 19, 4-((1R)-1-fluoro-1-methyl-2-oxo-2-{[(2R)-pyrrolidin-2-ylmethyl]amino}ethyl)phenyl trifluoromethanesulfonate]
inhibition at 0.01 µM [5]: 45 ± 4%

SMILES: CONC(=O)C(C)(F)c1ccc(OS(=O)(=O)C(F)(F)F)cc1 (centres unmarked) [Compound 11, 4-[1-fluoro-2-(methoxyamino)-1-methyl-2-oxoethyl]phenyl trifluoromethanesulfonate]
inhibition at 0.1 µM ([2]; values marked *: 10^−7 M, Table 1, read-out: CXCL8 (% of inhibition at 10^−7 M)): 40 ± 10%
inhibition at 0.01 µM ([1]; Table 1): 7 ± 8%

SMILES: C[C@](F)(C(N)=O)c1ccc(OS(=O)(=O)C(F)(F)F)cc1 [Compound 9, 4-[(1R)-2-amino-1-fluoro-1-methyl-2-oxoethyl)phenyl trifluoromethanesulfonate]
inhibition at 0.01 µM ([1]; Table 1): 53 ± 9%

melting point: 91 to 94 °C
SMILES: C[C@@](F)(C(=O)O)c1ccc(OS(=O)(=O)C(F)(F)F)cc1 [Compound 2, (2S)-2-fluoro-2-(4-{[(trifluoromethyl)sulfonyl]oxy}phenyl)propanoic acid]
inhibition at 0.1 µM [1, 8]: 43 ± 15%

SMILES: CC(F)(C(=O)O)c1ccc(OS(=O)(=O)C(F)(F)F)cc1 (centres unmarked) [Compound 1, 2-Fluoro-2-(4-{[(trifluoromethyl)sulfonyl]oxy}phenyl) propanoic acid]
inhibition at 0.1 µM [1, 8]: 47 ± 10%

fraction unbound at 20 min, 50 μg/mL [6]: 0.08
Vd [4]: 1.47 L/kg
clearance [4]: 2.28 mL/min/kg
bioavailability [4]: 84.2%
half-life [4]: 9.1 h
SMILES: C[C@@](F)(C(N)=O)c1ccc(OS(=O)(=O)C(F)(F)F)cc1 [drawing 25]

SMILES: C[C@@](F)(C(=O)NCCCN1CCCC1)c1ccc(OS(=O)(=O)C(F)(F)F)cc1 [Compound 18]
inhibition at 0.01 µM [5]: 53 ± 5%

melting point: 90 to 94 °C
SMILES: C[C@](F)(C(=O)O)c1ccc(OS(=O)(=O)C(F)(F)F)cc1 [Compound 3, (2R)-2-fluoro-2-(4-{[(trifluoromethyl)sulfonyl]oxy}phenyl)propanoic acid]
inhibition at 0.1 µM [1, 8]: 49 ± 6%

SMILES: C[C@](F)(C(=O)NS(C)(=O)=O)c1ccc(OS(=O)(=O)C(F)(F)F)cc1 [Compound 17, 4-{(1R)-1-fluoro-1-methyl-2-[(methylsulfonyl)amino]-2-oxoethyl}phenyl trifluoromethanesulfonate]
inhibition at 0.01 µM ([1]; Table 1): 57 ± 14%

SMILES: CN(O)C(=O)[C@@](C)(F)c1ccc(OS(=O)(=O)C(F)(F)F)cc1 [Compound 5, 4-[(1S)-1-fluoro-2-[hydroxyl(methyl)amino]-1-methyl-2-oxoethyl}phenyl trifluoromethane sulfonate]
inhibition at 0.01 µM ([1]; Table 1): 40 ± 8%

fraction unbound at 20 min, 50 μg/mL [6]: 0.05
Vd [4]: 0.631 L/kg
clearance [4]: 0.53 mL/min/kg
bioavailability [4]: 46.8%
half-life [4]: 13.8 h
SMILES: C[C@](F)(C(N)=O)c1ccc(OS(=O)(=O)C(F)(F)F)cc1 [drawing 24]

SMILES: CC(F)(C(N)=O)c1cccc(Nc2nc(C(F)(F)F)cs2)c1 (centres unmarked) [Compound 14, 2-fluoro-2-(3-{[4-(trifluoromethyl)-1,3-thiazol-2-yl]amino}phenyl)propanamide]
inhibition at 0.001 µM ([2]; Table 2, read-out: CSCL8 (% inhibition at 10^−9 M)): 36 ± 12%
inhibition at 0.01 µM ([1]; Table 2): 55 ± 7%
inhibition at 0.01 µM [5]: 33 ± 5%

fraction unbound at 20 min, 50 μg/mL [3]: 0.06
Vd [4]: 0.55 L/kg
clearance [4]: 3.67 mL/min/kg
bioavailability [4]: 72%
half-life [4]: 1.9 h
SMILES: C[C@@H](C(N)=O)c1ccc(OS(=O)(=O)C(F)(F)F)cc1

SMILES: C[C@@](F)(C(=O)NO)c1ccc(OS(=O)(=O)C(F)(F)F)cc1 [Compound 4, 4-[(1S)-1-fluoro-2-(hydroxyamino)-1-methyl-2-oxoethyl}phenyl trifluoromethanesulfonate]
inhibition at 0.01 µM ([1]; Table 1): 55 ± 10%

SMILES: C[C@@](F)(C(N)=O)c1ccc(OS(=O)(=O)C(F)(F)F)cc1 [Compound 10, 4-[(1S)-2-amino-1-fluoro-1-methyl-2-oxoethyl)phenyl trifluoromethanesulfonate]
inhibition at 0.001 µM [2, 7]: 50 ± 6%
inhibition at 0.01 µM ([1]; Table 1): 10 ± 12%

SMILES: C[C@H](NC(=O)[C@](C)(F)c1ccc(OS(=O)(=O)C(F)(F)F)cc1)C(=O)O [Compound 15, (2S)-2-{[(2R)-2-fluoro-2-(4-{[(trifluoromethyl)sulfonyl]oxy}phenyl)propanoyl]amino}propanoic acid]
inhibition at 0.001 µM [2, 7]: 55 ± 8%

SMILES: CC(C)NC(=O)C(C)(F)c1ccc(OS(=O)(=O)C(F)(F)F)cc1 (centres unmarked) [Compound 12, 4-[1-fluoro-2-(isopropylamino)-1-methyl-2-oxoethyl]phenyl trifluoromethanesulfonate]
inhibition at 0.1 µM [1, 8]: 45 ± 8%

SMILES: CC(F)(C(N)=O)c1ccc(OS(=O)(=O)C(F)(F)F)cc1 (centres unmarked) [Compound 8, 4-(2-amino-1-fluoro-1-methyl-2-oxoethyl)phenyl trifluoromethanesulfonate]
inhibition at 0.001 µM [2, 7]: 50 ± 9%
inhibition at 0.01 µM ([1]; Table 1): 57 ± 12%
